In patent US11439624B2, “Promoting sleep using AT1 receptor blockers” (UNIVERSITY OF PITTSBURGH—OF THE COMMONWEALTH SYSTEM OF …, priority 2012, dated 2022):

Legend:
[1] = tested on: rats in the stress-induced insomnia model; test: stress-induced insomnia model in rats (cage exchange; EEG and EMG recording); assay type: in vivo, rat; details: for average of REM sleep / average of nREM sleep / average of wakefulness along the entire experiment: aprox. 6 hours after cage exchange and drug injection; for average of REM sleep: vehicle 2%; for average of nREM sleep: vehicle 45%; for average of wakefulness along the entire experiment: vehicle 52%; for REM sleep (range depending on the hour): vehicle 0-4%; for sleep latency: stressed (cage exchanged) rats, i.p. just prior to transfer to soiled cage, candesartan 1 or 5 mg/kg, azilsartan 0.5 mg/kg, vehicle 68±10 minutes; for abnormal wave components in the EEG (power spectrum analysis): treated rats in the insomnia model
Protocol: Rats in the stress-induced insomnia model (25) were treated with candesartan intraperitoneally (i.p.; 1 mg/kg or 5 mg/kg). In the model, insomnia is induced by transferring male rats at the peak of their normal sleep cycle into a soiled cage previously occupied during one week by another male rat. This simple procedure induces a psychological or social stress response in the rats, which are very territorial animals. The sequence of sleep disturbances in cage exchanged rats is similar to that observed in humans with primary insomnia. In rats, there is an initial delay in sleep onset and increased wakefulness that resemble the difficulties falling asleep at the beginning of the night, or initial insomnia, observed in humans after a stressful day. Eventually, insomniacs fall asleep because of the sleep pressure, as rats do. But later, as the night progresses, they usually experience insomnia characterized by decreased nREM sleep, frequent awakenings, and poor quality sleep, similar to what we observed in the stressed rats. Candesartan was injected i.p. just prior to transferring the rats (n=7 for the 1 mg/kg treatment and n=4 for the 5 mg/kg treatment) to the soiled cage. EEG and EMG activity were recorded continuously to determine the behavioral state (wake, nREM or REM sleep) along several hours. Control rats (n=6) were injected with vehicle and also placed in a soiled cage and recorded. […] REM sleep is increased to 6-12% (depending on the hour) compared with vehicle treated rats (0-4%). In an additional study, Azilsartan was tested using the same stress-induced insomnia model in rats as was used in Example 1. Azilsartan, which mainly acts as an inverse agonist of AT1 receptors, has been reported to have a potent effect in the treatment of hypertension at a single daily dose compared to twice-a-day doses commonly used for other AT1 receptor blockers. For this reason, we used a lower dose of azilsartan (0.5 mg/kg) than the dose used for candesartan. Azilsartan was injected i.p. just prior to transferring the rats (n=4) to the soiled cage. EEG and EMG activity were recorded continuously to determine the behavioral state (wake, nREM or REM sleep) along several hours, as explained above.

[2] = tested on: humans treated for hypertension; details: cited from earlier work
[3] = candesartan 1 or 5 mg/kg i.p., azilsartan 0.5 mg/kg i.p.

| Compound | average of REM sleep [1] | average of nREM sleep [1] | average of wakefulness along the entire experiment [1] | nREM sleep increase compared with vehicle treated rats (depending on the hour) ([1]; candesartan 1 or 5 mg/kg i.p.) | REM sleep (range depending on the hour) [1, 3] | sleep latency [1] | abnormal wave components in the EEG (power spectrum analysis) [1] | more sleep in the last two hours of the experiment compared to candesartan-treated rats ([1]; 4 hours after injection of the drug, azilsartan 0.5 mg/kg i.p.) | percentage of nREM sleep (range depending on the hour) ([1]; azilsartan 0.5 mg/kg i.p.) | effect on sleep disturbances induced by stress ([1]; validated rat model of stress-induced insomnia) | duration of effect compared with other AT1 receptor blockers [2] |
| --- | --- | --- | --- | --- | --- | --- | --- | --- | --- | --- | --- |
| CCOc1nc2cccc(C(=O)O)c2n1Cc1ccc(-c2ccccc2-c2nnn[nH]2)cc1 [candesartan] | 7.5% | 57% | 35% | 20-40% | 6-12% | 38 ± 3 min | does not induce abnormal wave components in the EEG | – | – | – | – |
| CCOc1nc2cccc(C(=O)O)c2n1Cc1ccc(-c2ccccc2-c2noc(=O)[nH]2)cc1 [azilsartan] | 10% | 68% | 22% | – | 3-15% | 60 ± 3 min | does not seem to induce abnormal wave components in the EEG | 20% | 50-82% | ameliorate sleep disturbances induced by stress | longer-lasting effect than other AT1 receptor blockers |
